Patent US20250179103A1, “6-OXODECAHYDROPYRROLO[1,2-A][1,5]DIAZOCINE AND 6-OXODECAHYDRO-4H-PYRROLO[2,1-D][1,5]THIAZOCINE DERIVATIVES AS STAT3 AND STAT6 MODULATORS FOR THE TREATMENT OF CANCER AND INFLAMMATORY CONDITIONS” (Recludix Pharma, Inc., priority 2022, published 2025)

Tests used:
[1] = target: T1, Recombinant STAT6 protein (STAT6(W123-T658)) (Homo sapiens, UniProt P42226); assay: STAT6 Fluorescence Polarization (FP) Assay; assay type: binding; details: STAT6(W123-T658) 250 nM, probe 5-FAM-ApYKPFQDLI-NH2 2 nM, 45-minute incubation
T1 construct: Recombinant STAT6 protein (STAT6(W123-T658))
T1 sequence (P42226 123-658): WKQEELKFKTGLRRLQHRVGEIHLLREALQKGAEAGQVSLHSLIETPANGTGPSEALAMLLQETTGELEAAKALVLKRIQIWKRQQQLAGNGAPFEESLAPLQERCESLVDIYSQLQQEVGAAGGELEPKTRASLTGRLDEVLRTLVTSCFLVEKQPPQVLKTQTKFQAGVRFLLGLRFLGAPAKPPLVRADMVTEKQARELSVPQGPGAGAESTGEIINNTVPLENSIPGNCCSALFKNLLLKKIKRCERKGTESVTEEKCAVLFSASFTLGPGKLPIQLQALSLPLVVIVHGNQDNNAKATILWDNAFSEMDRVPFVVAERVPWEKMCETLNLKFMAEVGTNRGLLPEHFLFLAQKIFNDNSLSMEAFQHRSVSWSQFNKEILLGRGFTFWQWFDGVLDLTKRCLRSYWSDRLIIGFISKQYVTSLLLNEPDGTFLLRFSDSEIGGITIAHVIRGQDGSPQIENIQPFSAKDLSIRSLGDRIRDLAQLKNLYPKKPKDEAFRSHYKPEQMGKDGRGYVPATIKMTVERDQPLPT
Protocol: STAT6 Fluorescence Polarization (FP) Assay
An FP assay was developed to determine IC50 values for test substances. Recombinant STAT6 protein (STAT6(W123-T658)) at 250 nM was combined with a fluorescently labeled, phosphotyrosine peptide probe (5-FAM-ApYKPFQDLI-NH2) at 2 nM in FP buffer (10 mM HEPES pH 7.4, 50 mM NaCl, 1 mM EDTA, 0.05% Tween 20.2 mM DTT). 50 μL of STAT6-probe mixture was added to serial diluted compounds in black, 96-well plates (Greiner BioOne 655076) to a final concentration of 1% DMSO. Reaction components were mixed, and FP was measured after 45-minute incubation at room temperature using a Tecan Spark multimode plate reader. FP signal (mP) was plotted against the log concentration of the test substances and IC50 values were calculated by nonlinear regression analysis using GraphPad Prism software. For STAT6 FP assay, A=≤300 nM; B=>300-3000 nM; C=>3-30 μM; and D=>30 μM.

[2] = target: T2, Recombinant STAT3 protein (STAT3(G127-I722)) (Homo sapiens, UniProt P40763); assay: STAT3 Fluorescence Polarization (FP) Assay; assay type: binding; details: STAT3(G127-I722) 25 nM, probe 5-FAM-GpYLPQTV-NH2 2 nM, 45-minute incubation
T2 construct: Recombinant STAT3 protein (STAT3(G127-I722))
T2 sequence (P40763 127-722): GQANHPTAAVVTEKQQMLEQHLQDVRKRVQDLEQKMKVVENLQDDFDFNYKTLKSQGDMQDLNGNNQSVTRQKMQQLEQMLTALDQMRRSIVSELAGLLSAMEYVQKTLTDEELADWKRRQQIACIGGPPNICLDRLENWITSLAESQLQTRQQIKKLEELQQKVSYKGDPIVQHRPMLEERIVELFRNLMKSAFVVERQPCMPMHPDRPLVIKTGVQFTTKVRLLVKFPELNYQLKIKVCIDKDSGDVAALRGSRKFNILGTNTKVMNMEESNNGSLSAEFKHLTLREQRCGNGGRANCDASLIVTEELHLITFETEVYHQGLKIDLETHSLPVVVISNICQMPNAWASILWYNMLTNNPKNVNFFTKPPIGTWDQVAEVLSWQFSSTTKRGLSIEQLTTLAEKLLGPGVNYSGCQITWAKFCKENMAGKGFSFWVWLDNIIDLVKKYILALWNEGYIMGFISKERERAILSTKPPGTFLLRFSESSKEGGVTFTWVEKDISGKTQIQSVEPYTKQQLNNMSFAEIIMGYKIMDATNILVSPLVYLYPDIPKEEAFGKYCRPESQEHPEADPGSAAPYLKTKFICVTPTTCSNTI
Protocol: STAT3 Fluorescence Polarization (FP) Assay
An FP assay was developed to determine IC50 values for test substances. Recombinant STAT3 protein (STAT3(G127-I722)) at 25 nM was combined with a fluorescently labeled, phosphotyrosine peptide probe (5-FAM-GpYLPQTV-NH2) at 2 nM in FP buffer (10 mM HEPES pH 7.4, 50 mM NaCl, 1 mM EDTA, 0.05% Tween 20.2 mM DTT). 50 μL of STAT3-probe mixture was added to serial diluted compounds in black, 96-well plates (Greiner BioOne 655076) to a final concentration of 1% DMSO. Reaction components were mixed, and FP was measured after 45-minute incubation at room temperature using a Tecan Spark multimode plate reader. FP signal (mP) was plotted against the log concentration of the test substances and IC50 values were calculated by nonlinear regression analysis using GraphPad Prism software. For STAT3 FP assay, A=≤100 nM; B=>100-1000 nM; C=>1-10 μM; and D=>10 μM.

Compound | IC50 [1] [µM] | IC50 [2] [µM]
CCN1CC[C@H](NC(=O)c2ccc3ccc(C(F)(F)P(=O)(O)O)cc3c2)C(=O)N2[C@H](CC[C@H]2C(=O)N2C[C@H](c3ccccc3)[C@@H](C#N)C2)C1 (relative stereo) [Compound 227, ((7-(((5S,8S,10aR)-8-((rel-trans)-3-cyano-4-phenylpyrrolidine-1-carbonyl)-2-ethyl-6-oxodecahydropyrrolo[1,2-a][1,4]diazocin-5-yl)carbamoyl)naphthalen-2-yl)difluoromethyl)phosphonic acid] | ≤ 0.3 | 1 to 10
N#C[C@H]1CN(C(=O)[C@@H]2CC[C@@H]3CN(C4CCC4)CC[C@H](NC(=O)c4ccc5ccc(C(F)(F)P(=O)(O)O)cc5c4)C(=O)N32)C[C@@H]1c1ccccc1 (relative stereo) [Compound 228, ((7-(((5S,8S,10aR)-8-((rel-trans)-3-cyano-4-phenylpyrrolidine-1-carbonyl)-2-cyclobutyl-6-oxodecahydropyrrolo[1,2-a][1,4]diazocin-5-yl)carbamoyl)naphthalen-2-yl)difluoromethyl)phosphonic acid] | ≤ 0.3 | 1 to 10
N#C[C@H]1CN(C(=O)[C@@H]2CC[C@@H]3CCN(CC(F)F)C[C@H](NC(=O)c4ccc5ccc(C(F)(F)P(=O)(O)O)cc5c4)C(=O)N32)CC[C@@H]1c1ccccc1 (relative stereo) [Compound 241, ((7-(((5S,8S,10aR)-8-((rel-trans)-3-cyano-4-phenylpiperidine-1-carbonyl)-3-(2,2-difluoroethyl)-6-oxodecahydropyrrolo[1,2-a][1,5]diazocin-5-yl)carbamoyl)naphthalen-2-yl)difluoromethyl)phosphonic acid] | 0.3 to 3 | 1 to 10
N#C[C@H]1CN(C(=O)[C@@H]2CC[C@@H]3CCN(CC(F)F)C[C@H](NC(=O)c4ccc5ccc(C(F)(F)P(=O)(O)O)cc5c4)C(=O)N32)C[C@@H]1c1cc(F)cc(F)c1 (relative stereo) [Compound 246, ((7-(((5S,8S,10aR)-8-((rel-trans)-3-cyano-4-(3,5-difluorophenyl)pyrrolidine-1-carbonyl)-3-(2,2-difluoroethyl)-6-oxodecahydropyrrolo[1,2-a][1,5]diazocin-5-yl)carbamoyl)naphthalen-2-yl)difluoromethyl)phosphonic acid] | 0.3 to 3 | 1 to 10
COC(=O)N1CC[C@H]2CC[C@@H](C(=O)N3C[C@H](c4ccccc4)[C@@H](C#N)C3)N2C(=O)[C@@H](NC(=O)c2cc3cc(C(F)(F)P(=O)(O)O)ccc3s2)C1 (relative stereo) [Compound 250, ((2-(((5S,8S,10aR)-8-((rel-trans)-3-cyano-4-phenylpyrrolidine-1-carbonyl)-3-(methoxycarbonyl)-6-oxodecahydropyrrolo[1,2-a][1,5]diazocin-5-yl)carbamoyl)benzo[b]thiophen-5-yl)difluoromethyl)phosphonic acid] | ≤ 0.3 | 0.1 to 1
CC(C)CN1CC[C@H]2CC[C@@H](C(=O)N3C[C@@H](C#N)[C@H](c4ccccc4)C3)N2C(=O)[C@@H](NC(=O)c2cc3cc(C(F)(F)P(=O)(O)O)ccc3s2)C1 (relative stereo) [Compound 279, ((2-(((5S,8S,10aR)-8-((rel-trans)-3-cyano-4-phenylpyrrolidine-1-carbonyl)-3-isobutyl-6-oxodecahydropyrrolo[1,2-a][1,5]diazocin-5-yl)carbamoyl)benzo[b]thiophen-5-yl)difluoromethyl)phosphonic acid] | ≤ 0.3 | 0.1 to 1

Results, then the compound that gave them:

IC50 [1] [µM] | IC50 [2] [µM] | Compound
≤ 0.3 | 1 to 10 | N#C[C@H]1CN(C(=O)[C@@H]2CC[C@@H]3CN(C(=O)OCc4ccccc4)CC[C@H](NC(=O)c4ccc5ccc(C(F)(F)P(=O)(O)O)cc5c4)C(=O)N32)C[C@@H]1c1ccccc1 (relative stereo) [Compound 213, ((7-(((5S,8S,10aR)-2-((benzyloxy)carbonyl)-8-((rel-trans)-3-cyano-4-phenylpyrrolidine-1-carbonyl)-6-oxodecahydropyrrolo[1,2-a][1,4]diazocin-5-yl)carbamoyl)naphthalen-2-yl)difluoromethyl)phosphonic acid]
≤ 0.3 | 1 to 10 | Cc1ccc2[nH]nc(C(=O)N3CC[C@H](NC(=O)c4ccc5ccc(C(F)(F)P(=O)(O)O)cc5c4)C(=O)N4[C@H](CC[C@H]4C(=O)N4C[C@H](c5ccccc5)[C@@H](C#N)C4)C3)c2c1 (relative stereo) [Compound 233, ((7-(((5S,8S,10aR)-8-(rel-tran)-3-cyano-4-phenylpyrrolidine-1-carbonyl)-2-(5-methyl-1H-indazole-3-carbonyl)-6-oxodecahydropyrrolo[1,2-a][1,4]diazocin-5-yl)carbamoyl)naphthalen-2-yl)difluoromethyl)phosphonic acid]
≤ 0.3 | 0.1 to 1 | Cc1ccc2[nH]nc(C(=O)N3CC[C@H]4CC[C@@H](C(=O)N5C[C@H](c6ccccc6)[C@@H](C#N)C5)N4C(=O)[C@@H](NC(=O)c4ccc5ccc(C(F)(F)P(=O)(O)O)cc5c4)C3)c2c1 (relative stereo) [Compound 236, ((7-(((5S,8S,10aR)-8-((rel-trans)-3-cyano-4-phenylpyrrolidine-1-carbonyl)-3-(5-methyl-1H-indazole-3-carbonyl)-6-oxodecahydropyrrolo[1,2-a][1,5]diazocin-5-yl)carbamoyl)naphthalen-2-yl)difluoromethyl)phosphonic acid]
0.3 to 3 | 1 to 10 | CCN1CC[C@H]2CC[C@@H](C(=O)N3C[C@@H](C#N)[C@H](c4cc[nH]c(=O)c4)C3)N2C(=O)[C@@H](NC(=O)c2ccc3ccc(C(F)(F)P(=O)(O)O)cc3c2)C1 (relative stereo) [Compound 240, ((7-(((5S,8S,10aR)-8-((rel-trans)-3-cyano-4-(2-oxo-1,2-dihydropyridin-4-yl)pyrrolidine-1-carbonyl)-3-ethyl-6-oxodecahydropyrrolo[1,2-a][1,5]diazocin-5-yl)carbamoyl)naphthalen-2-yl)difluoromethyl)phosphonic acid]
≤ 0.3 | 0.1 to 1 | O=C(N[C@H]1CN(CC(F)F)CC[C@H]2CC[C@@H](C(=O)N3C[C@H](c4ccccc4)[C@@H](C(F)F)C3)N2C1=O)c1cc2cc(C(F)(F)P(=O)(O)O)ccc2s1 (relative stereo) [Compound 242, ((2-(((5S,8S,10aR)-3-(2,2-difluoroethyl)-8-((rel-trans)-3-(difluoromethyl)-4-phenylpyrrolidine-1-carbonyl)-6-oxodecahydropyrrolo[1,2-a][1,5]diazocin-5-yl)carbamoyl)benzo[b]thiophen-5-yl)difluoromethyl)phosphonic acid]
0.3 to 3 | 1 to 10 | N#CC1CN(C(=O)C2CCC3CCS(=N)(=O)CC(NC(=O)c4cc5cc(C(F)(F)P(=O)(O)O)ccc5s4)C(=O)N32)CC1c1ccccc1 (single isomer, unassigned) [Compound 7]
≤ 0.3 | 0.1 to 1 | N#C[C@@H]1CN(C(=O)[C@@H]2CC[C@@H]3CCS(=O)(=O)C[C@H](NC(=O)c4cc5cc(C(F)(F)P(=O)(O)O)ccc5s4)C(=O)N32)C[C@H]1c1ccccc1 (single isomer, unassigned) [Compound 8]
≤ 0.3 | ≤ 0.1 | CC(=O)N1CC[C@H]2CC[C@@H](C(=O)N3C[C@@H](C#N)[C@]4(C3)C(=O)Nc3ccccc34)N2C(=O)[C@@H](NC(=O)c2cc3cc(C(F)(F)P(=O)(O)O)ccc3s2)C1 (single isomer, unassigned) [Compound 12, ((2-(((5S,8S,10aR)-3-acetyl-8-((3S,4′S or 3R,4′R)-4′-cyano-2-oxospiro[indoline-3,3′-pyrrolidine]-1′-carbonyl)-6-oxodecahydropyrrolo[1,2-a][1,5]diazocin-5-yl)carbamoyl)benzo[b]thiophen-5-yl)difluoromethyl)phosphonic acid]
